Values joined by “and” are separate entries in the source; they are usually repeats but may differ in a detail not shown here. Equal values may be shown once. Read-outs that look alike come from different tables or passages of the source.
Columns and labels:
[1] = biological target: memapsin 2 (Homo sapiens, UniProt P56817); assay: Inhibition of memapsin 2 beta-secretase activity (fluorogenic substrate FS-2); assay type: biochemical; settings: pH 4, 37° C., read-out: M2 Ki
Summary of the method: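 Memapsin 2 pre-incubated with compound for 20 min at pH 4, 37° C. Reaction started with fluorogenic substrate FS-2, […], derived from Swedish-variant APP beta-secretase site; inhibition measured from fluorescence.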

[2] = biological target: T1, memapsin 2 (Cricetulus griseus, UniProt G3IAK4); assay: Cellular Aβ IC50 determination (Aβ40 sandwich ELISA); assay type: cell-based, Chinese hamster; settings: CHO cells over-expressing human APP695 with London and Swedish mutations, 24 h, read-out: M2 IC50
T1 construct: endogenous in cells; host or cells: Chinese hamster ovary cells over-expressing human APP695 (London + Swedish)
Summary of the method: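 CHO cells overexpressing human APP695 (London and Swedish mutations) treated 48 h post-seeding with serially diluted compounds (top near 4 μM, 0.4% DMSO), 24 h at 37° C, 5% CO2. Medium Aβ40 measured by sandwich ELISA; levels relative to control fitted to 4-parameter IC50 model.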

[3] = biological target: cathepsin D (Homo sapiens, UniProt P07339); assay: Inhibition of cathepsin D activity (MALDI-TOF, substrate ELDLAVEFWHDR); assay type: biochemical; settings: substrate peptide ELDLAVEFWHDR, pH 4.1, 37 degrees C, read-out: CD Ki
Procedure: [The source words this procedure for another target and reports this target under the same test.] A substrate peptide NH3-ELDLAVEFWHDR-CO2 (SEQ ID NO.: 1) was dissolved at 2 mg/mL in 10% glacial acetic acid and diluted into 0.009M NaOH to obtain μM concentration at pH 4.1. After equilibration at 37 degrees C., the reactions were initiated by the addition of an aliquot of memapsin 2. Aliquots were removed at time intervals, and combined with an equal volume of MALDI-TOF matrix (α-hydroxycinnamic acid in acetone, 20 mg/mL) and immediately spotted in duplicate onto a stainless-steel MALDI sample plate. MALDI-TOF mass spectrometry was performed on a PE Biosystems Voyager DE. The instrument was operated at 25,000 accelerating volts in positive mode with a 150 ns delay. Ions with a mass-to-charge ratio (m/z) were detected in the range of 650-2000 atomic mass units. Data were analyzed by the Voyager Data Explorer module to obtain ion intensity data for mass species of substrates and corresponding products in a given mixture. Relative product formation was calculated as the ratio of signal intensity of the product to the sum of signal intensities of both product and the corresponding substrate. Relative product formed per unit time was obtained from non-linear regression analysis of the data representing the initial 15% formation of product using the model:
where k was the relative hydrolytic rate constant and T was time in seconds. Initial rates were expressed relative to uninhibited controls and fit to a tight-binding model of competitive inhibition as above.

[4] = biological target: T2, CYP3A4 (Homo sapiens, UniProt P08684); assay: CYP3A4 inhibition (midazolam metabolism in human liver microsomes); assay type: in vitro ADME; settings: substrate midazolam
T2 construct: host or cells: human liver microsomes
Summary of the method: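 Human liver microsomes (0.1 mg/mL) with midazolam at 1.25–10 μM and compound at 0.078–10 μM, in 100 mM phosphate pH 7.4 with NADPH regeneration at 37.2 °C, sampled at 20, 30 and 40 min. 1′-Hydroxymidazolam was quantified by LC-MS/MS. Ki was obtained by Dixon plots across substrate concentrations.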

[5] = Hepatic intrinsic clearance in liver microsomes; assay type: in vitro ADME; settings: human, pH 7.4, human liver microsomes
Procedure: To 500 μl of 200 mM Na^+K^+phosphate buffer (pH 7.4), 100 μl of 1 mM EDTA solution was added followed by 100 μl of 2 mg protein/ml human liver microsomes. A 10 μl aliquot of test compound (20 mM stock in 50% acetonitrile) was diluted further with 40 μl of H2O (total assay volume […]. Assay mixture is incubated for 5 minutes at 37° C. The assay was initiated by addition of 250 μl of 4 mM NADPH solution. Incubation was continued at 37° C. Separate reaction mixtures were prepared for 0, 5, 10, 20, and 30 min durations. Individual reactions were halted by addition of 150 μl of 100% acetonitrile. Internal standard (10 μl of 100 ng/ml diazepam solution) was added. Concentration of the test compound in each separate reaction was measured using LC/MS/MS and a standard curve for the test compound according to standard procedures.
The hepatic intrinsic clearance in liver microsome was determined by the following procedure described by Davies and Morris (Davies, B. and Morris, T. (19930) Physiological parameters in laboratory animals and humans. Pharm Res. 10:1093-1095) detailing the relationship of in vitro clearance to physiological parameters in animals and human subjects.
The amount of compound remaining at each time point was expressed relative to the amount present in the initial (0 min) incubation. The relationship of relative amount vs. time was used to determine the half life of the compound in the microsome assay. The concentration independent rate constant, k1, was determined from rectangular hyperbolic fit:
where T is time (in minutes), from the relationship of relative amount vs. time. Alternatively, k1 was determined from a transform of the equation, where
Conversion to in vivo clearance was obtained from the relation (Davies and Morris, 1993):
where v=velocity of metabolism, [S] is the concentration of the compound, and volumes are expressed in mL.

[6] = in vitro clearance, read-out: HLM CL

Chain of memapsin 2 (Homo sapiens, UniProt P56817) (P56817 46-501): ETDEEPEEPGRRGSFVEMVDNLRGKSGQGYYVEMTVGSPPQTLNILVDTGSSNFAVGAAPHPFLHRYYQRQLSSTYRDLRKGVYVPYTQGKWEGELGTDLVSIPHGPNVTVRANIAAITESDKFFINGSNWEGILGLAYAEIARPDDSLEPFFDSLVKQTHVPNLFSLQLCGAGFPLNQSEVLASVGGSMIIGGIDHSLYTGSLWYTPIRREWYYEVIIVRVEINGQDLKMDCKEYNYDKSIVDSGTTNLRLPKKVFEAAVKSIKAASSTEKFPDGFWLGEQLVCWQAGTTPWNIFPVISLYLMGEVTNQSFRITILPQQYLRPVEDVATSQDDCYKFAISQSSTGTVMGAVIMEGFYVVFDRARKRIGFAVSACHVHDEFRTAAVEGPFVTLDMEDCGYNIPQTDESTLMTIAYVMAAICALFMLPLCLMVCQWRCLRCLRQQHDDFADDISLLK
T1 sequence (G3IAK4 22-501): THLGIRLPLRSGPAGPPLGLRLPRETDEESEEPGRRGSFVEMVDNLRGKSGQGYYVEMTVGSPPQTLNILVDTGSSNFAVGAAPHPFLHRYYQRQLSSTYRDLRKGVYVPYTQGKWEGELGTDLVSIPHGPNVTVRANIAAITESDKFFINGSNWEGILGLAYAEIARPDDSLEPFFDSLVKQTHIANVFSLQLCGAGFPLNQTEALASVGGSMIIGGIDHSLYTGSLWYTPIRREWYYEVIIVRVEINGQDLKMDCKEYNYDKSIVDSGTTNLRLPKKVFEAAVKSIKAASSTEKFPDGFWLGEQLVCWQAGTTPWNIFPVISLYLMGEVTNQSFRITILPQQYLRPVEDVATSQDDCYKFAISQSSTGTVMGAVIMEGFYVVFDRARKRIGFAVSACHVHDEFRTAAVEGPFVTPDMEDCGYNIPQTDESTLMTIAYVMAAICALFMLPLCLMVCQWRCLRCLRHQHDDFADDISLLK
T2 sequence (P08684 whole entry): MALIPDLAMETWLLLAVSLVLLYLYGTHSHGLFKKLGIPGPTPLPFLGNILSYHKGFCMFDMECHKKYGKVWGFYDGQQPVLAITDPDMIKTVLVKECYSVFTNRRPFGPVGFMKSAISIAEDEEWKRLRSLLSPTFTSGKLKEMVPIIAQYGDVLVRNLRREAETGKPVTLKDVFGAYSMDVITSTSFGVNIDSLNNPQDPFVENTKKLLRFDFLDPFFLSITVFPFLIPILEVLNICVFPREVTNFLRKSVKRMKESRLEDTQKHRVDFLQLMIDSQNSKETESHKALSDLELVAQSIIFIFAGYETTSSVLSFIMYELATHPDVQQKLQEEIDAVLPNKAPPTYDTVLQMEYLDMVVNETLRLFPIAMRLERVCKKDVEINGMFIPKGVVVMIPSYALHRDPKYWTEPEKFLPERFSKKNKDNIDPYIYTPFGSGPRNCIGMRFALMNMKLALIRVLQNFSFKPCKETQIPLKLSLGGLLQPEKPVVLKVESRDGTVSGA
Chain of cathepsin D (P07339 65-412, species assumed): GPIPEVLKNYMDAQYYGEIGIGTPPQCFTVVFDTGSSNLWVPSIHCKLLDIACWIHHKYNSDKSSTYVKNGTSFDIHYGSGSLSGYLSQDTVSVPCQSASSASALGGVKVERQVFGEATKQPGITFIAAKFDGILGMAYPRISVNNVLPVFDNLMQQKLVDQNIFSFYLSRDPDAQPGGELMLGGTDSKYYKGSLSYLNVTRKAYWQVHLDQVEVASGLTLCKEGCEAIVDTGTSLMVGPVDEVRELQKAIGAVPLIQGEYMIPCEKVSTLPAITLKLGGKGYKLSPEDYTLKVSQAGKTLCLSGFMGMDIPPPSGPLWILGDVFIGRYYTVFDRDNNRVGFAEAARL

SMILES | Ki [1] | IC50 [2] [nM] | Ki [3] [nM] | Ki ([4]; read-out: CYP 3A4Ki) [nM] | CLint scaled at 200 μM [5, 6] [mL/min/kg] | Ki [4] [nM] | CLint scaled at 200 μM ([5]; read-out: hepatic intrinsic clearance in liver microsomes (HLMCL)) [mL/min/kg]
Cc1csc([C@H]2CCCN2C(=O)c2cccc(C(=O)N[C@@H](Cc3ccccc3)[C@H](O)[C@H]3C[C@@H](OCc4ccccc4)CN3)c2)n1 [1-22, N-((1R,2S)-1-((2R,4R)-4-(benzyloxy)pyrrolidin-2-yl)-1-hydroxy-3-phenylpropan-2-yl)-3-((R)-2-(4-methylthiazol-2-yl)pyrrolidine-1-carbonyl)benzamide] | < 250 nM | < 500 | 300 to 500 | 1000 to 5000 |  |  | 
Cc1coc([C@H]2CCCN2C(=O)c2cc(C(=O)N[C@@H](Cc3cc(F)cc(F)c3)[C@H](O)[C@H]3CCCN3)cc(-c3ncco3)c2)n1 [1-69, N-((1R,2S)-3-(3,5-difluorophenyl)-1-hydroxy-1-((R)-pyrrolidin-2-yl)propan-2-yl)-3-((R)-2-(4-methyloxazol-2-yl)pyrrolidine-1-carbonyl)-5-(oxazol-2-yl)benzamide] | < 250 nM |  | 300 to 500 |  |  |  | 
Cc1csc([C@H]2CCCN2C(=O)c2cc(C(=O)N[C@@H](Cc3cc(F)cc(F)c3)[C@H](O)[C@H]3CCCN3)cc(-c3ncco3)c2)n1 [1-49, N-((1R,2S)-3-(3,5-difluorophenyl)-1-hydroxy-1-((R)-pyrrolidin-2-yl)propan-2-yl)-3-((R)-2-(4-methylthiazol-2-yl)pyrrolidine-1-carbonyl)-5-(oxazol-2-yl)benzamide] | < 250 nM | < 500 | < 300 |  |  |  | 
Cc1csc([C@H]2CCCN2C(=O)c2cc(C(=O)N[C@@H](Cc3ccccc3)[C@H](O)[C@H]3C[C@@H](Oc4ccccc4)CN3)cc(-c3ncco3)c2)n1 [1-79, N-((1R,2S)-1-hydroxy-1-((2R,4R)-4-phenoxypyrrolidin-2-yl)-3-phenylpropan-2-yl)-3-((R)-2-(4-methylthiazol-2-yl)pyrrolidine-1-carbonyl)-5-(oxazol-2-yl)benzamide] | < 250 nM |  | 300 to 500 |  |  |  | 
Cc1coc([C@H]2CCCN2C(=O)c2cccc(C(=O)N[C@@H](Cc3ccccc3)[C@H](O)[C@H]3C[C@@H](OCc4ccccc4)CN3)c2)n1 [1-18, N-((1R,2S)-1-((2R,4R)-4-(benzyloxy)pyrrolidin-2-yl)-1-hydroxy-3-phenylpropan-2-yl)-3-((R)-2-(4-methyloxazol-2-yl)pyrrolidine-1-carbonyl)benzamide] | ~50.4 nM and < 250 nM and 50.4 nM | < 500 |  | > 10000 | < 400 | 11500 | ~337
C[C@@H](NC(=O)c1cc(C(=O)N[C@@H](Cc2ccccc2)[C@H](O)[C@H]2CCCN2)cc(N(C)S(C)(=O)=O)c1)c1ccccc1 [1-11, N1-((1R,2S)-1-hydroxy-3-phenyl-1-((R)-pyrrolidin-2-yl)propan-2-yl)-5-(N-methylmethylsulfonamido)-N3-((R)-1-phenylethyl)isophthalamide] | < 250 nM | < 500 |  | > 10000 | < 400 |  | 
Cc1csc([C@H]2CCCN2C(=O)c2cccc(C(=O)N[C@@H](Cc3ccccc3)[C@H](O)[C@H]3C[C@@H](Oc4ccccc4)CN3)c2)n1 [1-74, N-((1R,2S)-1-hydroxy-1-((2R,4R)-4-phenoxypyrrolidin-2-yl)-3-phenylpropan-2-yl)-3-((R)-2-(4-methylthiazol-2-yl)pyrrolidine-1-carbonyl)benzamide] | < 250 nM |  | > 500 |  |  |  | 

More lines, now with the values ahead:

Ki [1] | IC50 [2] [nM] | Ki [3] [nM] | Ki ([4]; read-out: CYP 3A4Ki) [nM] | CLint scaled at 200 μM [5, 6] [mL/min/kg] | Ki [4] [nM] | CLint scaled at 200 μM ([5]; read-out: hepatic intrinsic clearance in liver microsomes (HLMCL)) [mL/min/kg] | SMILES
< 250 nM | < 500 | > 500 | 5000 to 10000 |  |  |  | Cc1csc([C@H]2CCCN2C(=O)c2cc(C(=O)N[C@@H](Cc3ccccc3)[C@H](O)[C@H]3CCCN3)cc(N(C)S(C)(=O)=O)c2)n1 [1-23, N-((1R,2S)-1-hydroxy-3-phenyl-1-((R)-pyrrolidin-2-yl)propan-2-yl)-3-(N-methylmethylsulfonamido)-5-((R)-2-(4-methylthiazol-2-yl)pyrrolidine-1-carbonyl)benzamide]
< 250 nM |  | > 500 |  |  |  |  | Cc1csc([C@H]2CCCN2C(=O)c2cc(C(=O)N[C@@H](Cc3ccccc3)[C@H](O)[C@H]3CCCN3)cc(N3CCCCS3(=O)=O)c2)n1 [1-78, N-((1R,2S)-1-hydroxy-3-phenyl-1-((R)-pyrrolidin-2-yl)propan-2-yl)-3-((R)-2-(4-methylthiazol-2-yl)pyrrolidine-1-carbonyl)-5-(thiazinanyl-S,S-dioxide)benzamide]
< 250 nM | > 1000 | > 500 |  | < 400 |  |  | Cc1csc([C@H]2CCCN2C(=O)c2cc(C(=O)N[C@@H](Cc3ccccc3)[C@H](O)[C@H]3CCCN3)cc(-c3cccc(C(F)(F)F)c3)c2)n1 [1-43, N-((1R,2S)-1-hydroxy-3-phenyl-1-((R)-pyrrolidin-2-yl)propan-2-yl)-5-((R)-2-(4-methylthiazol-2-yl)pyrrolidine-1-carbonyl)-3′-(trifluoromethyl)biphenyl-3-carboxamide]
< 250 nM |  | < 300 |  |  |  |  | C=CCO[C@H]1CN[C@@H]([C@@H](O)[C@H](Cc2ccccc2)NC(=O)c2cc(C(=O)N3CCC[C@@H]3c3nc(C)cs3)cc(-c3ncco3)c2)C1 [1-70, N-((1R,2S)-1-((2R,4R)-4-(allyloxy)pyrrolidin-2-yl)-1-hydroxy-3-phenylpropan-2-yl)-3-((R)-2-(4-methylthiazol-2-yl)pyrrolidine-1-carbonyl)-5-(oxazol-2-yl)benzamide]
< 250 nM |  | > 500 |  |  |  |  | Cc1cc(C(=O)N[C@@H](Cc2cc(F)cc(F)c2)[C@H](O)[C@H]2CCCN2)cc(C(=O)N2CCC[C@@H]2c2nc(C)cs2)c1 [1-64, N-((1R,2S)-3-(3,5-difluorophenyl)-1-hydroxy-1-((R)-pyrrolidin-2-yl)propan-2-yl)-3-methyl-5-((R)-2-(4-methylthiazol-2-yl)pyrrolidine-1-carbonyl)benzamide]
< 250 nM |  | > 500 |  |  |  |  | Cc1csc([C@H]2CCCN2C(=O)c2cc(I)cc(C(=O)N[C@@H](Cc3ccccc3)[C@H](O)[C@H]3CCCN3)c2)n1 [1-71, N-((1R,2S)-1-hydroxy-3-phenyl-1-((R)-pyrrolidin-2-yl)propan-2-yl)-3-iodo-5-((R)-2-(4-methylthiazol-2-yl)pyrrolidine-1-carbonyl)benzamide]
< 250 nM | < 500 | > 500 | > 10000 |  |  |  | Cc1csc([C@H]2CCCN2C(=O)c2cc(C(=O)N[C@@H](Cc3ccccc3)[C@H](O)[C@H]3CCCN3)cc(-c3ncco3)c2)n1 [1-19, N-((1R,2S)-1-hydroxy-3-phenyl-1-((R)-pyrrolidin-2-yl)propan-2-yl)-3-((R)-2-(4-methylthiazol-2-yl)pyrrolidine-1-carbonyl)-5-(oxazol-2-yl)benzamide]
